From patent US11406631B2, “Hydrazone derivatives for preventing or treating EBV-related cancers” (Universite de Bretagne Occidentale, priority 2018, dated 2022)

Assays:
[1] = tested on: GAr-based inhibition of translation; test: Yeast assay (assays described in Lista et al.); type: cell-based, Saccharomyces cerevisiae
Excerpt: A yeast-based (Saccharomyces cerevisiae) assay that recapitulates all the aspects of the GAr-based inhibition of translation, including the GAr-length dependency, has been developed, that allowed understanding the mechanisms of GAr-mediated mRNA translation—suppression in cis, as well as the cellular factors involved (Lista et al. Biotechnol J 2015, 10, 1670-1681). This assay was successfully used to identify small molecular weight compounds that can stimulate EBNA1 expression both in yeast and mammalian cells and that relieve GAr-based limitation of antigen presentation (Voisset et al. Dis Model Mech 2014, 7, 435-444).
Compounds 1a, 2a, 4a, 5a, 7a, 10a and 11a were also tested in the various assay described in Lista et al. (Nat Commun 2017, 8, 16043).

[2] = tested on: quadruplex RNA F-EBNA1-T; test: FRET-melting assay; type: binding, Epstein-Barr virus; settings: for ΔTm, ligand + 3 μM ds26 / ΔTm, ligand + 10 μM ds26 / ΔTm, ligand alone: F-EBNA1-T 0.2 μM, ligand 1.0 μM, K+10 buffer; for ΔTm, ligand + 3 μM ds26: competitor DNA ds26 3 μM (15 eq); for ΔTm, ligand + 10 μM ds26: competitor DNA ds26 10 μM (50 eq); for ΔTm, ligand alone: no competitor; for affinity for the G-quadruplex structure of EBNA1 (in words, FRET-melting data): conclusion from Table 2
Excerpt: The FRET-melting assay is based on thermal denaturation of G4-ARN monitored by fluorescence due to the phenomenon of Förster Resonance Energy Transfer (FRET). This method uses quadruplex-forming RNA sequence dual-labeled with two different fluorophores: a donor (fluorescein, or FAM) and an acceptor (tetramethylrhodamine, or TAMRA). When RNA is folded into G-quadruplex (G4) structure, fluorescence of the donor fluorophore is weak due to strong energy transfer (FRET) to the neighboring acceptor fluorophore. Upon thermal denaturation, the quadruplex unfolds and the fluorophores are separated, leading to decrease of the FRET effect and increase of the fluorescence of the donor (see FIG. 2). By following the fluorescence of the donor as a function of temperature, a melting curve of the G-quadruplex RNA can be obtained, which allows determining the temperature of denaturation at which 50% of the quadruples is unfolded (T1, FIG. 3).
The FRET-melting assay allows assessing the affinity of small molecules (ligands) for the G4-RNA. The addition of a G4-ligand stabilizes the G-quadruplex structure and increases the denaturation temperature. The temperature of denaturation in the presence of ligands (T2) can be compared with that obtained in the absence of ligands (T1). The value of ΔTm (ΔTm=T2−T1) represents a measure of the affinity of the compounds of the invention (ligand). Generally, values of ΔTm>20° C. correspond to ligands of high affinity.
The dual-labeled oligoribonucleotide EBNA1 [5′-FAM-r(GGGGCAGGAGCAGGAGGA)-TAMRA-3′] (SEQ ID no 2) purified by reversed-phase HPLC was purchased from Eurogentec. The donor fluorophore was 6-carboxyfluorescein (FAM) and the acceptor fluorophore was 6-carboxytetramethylrhodamine (TAMRA).
Stock solutions of the ligands (2 mM in DMSO) were used for FRET-melting assay, unless otherwise stated, and were stored at −20° C. FRET-melting measurements are performed on 7900HT Fast Real-Time PCR System (Applied Biosystems) with Microamp Fast optical 96-well reaction plate (Applied Biosystems).
Preparation of Oligonucleotides For FRET-melting assay, oligoribonucleotide F-EBNA1-T was dissolved in K^+10 buffer (10 mM lithium cacodylate buffer, pH 7.3, supplemented with 10 mM KCl and 90 mM LiCl).
Prior to use, all oligonucleotides were pre-treated by heating at 95° C. for 5 min, then rapidly cooled to 4° C. to favor the intramolecular folding by kinetic trapping. Duplex-DNA ds26 (5′CAA-TCG-GAT-CGA-ATT-CGA-TCC-GAT-TG-3′) (SEQ ID no 3) was prepared by heating this self-complementary strand at 90° C. for 5 min in K^+10 buffer followed by a slow cooling over 6 h.
FRET-melting assay is performed in 96-well plates on real time PCR apparatus 7900HT Fast Real-Time PCR System using the heating ramp as follow: 5 min at 25° C., then increase of 0.5° C. every minute until 95° C. Each experimental condition was tested in duplicated in a volume of 25 μL for each sample. The 96-well plates (Applied Biosystems) were prepared by aliquoting the annealed RNA (24 μL of 0.21 μM solution in K^+10 buffer) into each well, followed by 1 μL of ligand solution (25 μM in K^+10 buffer). For competition experiments, duplex competitors were added to 200 nM quadruplex sequences at final concentrations of 3.0 μM (15 eq) and 10.0 μM (50 eq), with a total reaction volume of 25 μL, with the labeled oligoribonucleotide (0.2 μM) and the ligand (1.0 μM). Measurements were made with excitation at 492 nm and detection at 516 nm. The change in the melting temperature in the presence of 1.0 μM putative ligand, ΔTm (1.0 μM), was calculated from at least two experiments by subtraction of the blank from the averaged melting temperature of each compound (1.0 μM).
The results are shown in FIG. 4 and in Table 2 below (higher ΔTm values indicate higher affinity of the compounds to G4-RNA structure of EBNA1).

[3] = molecular target: G4-RNA EBNA1; test: HT-G4-FID assay: Thiazole Orange displacement from G4-RNA; type: binding, Epstein-Barr virus; settings: for DC50: K+-100 buffer, pH 7.3, triplicate assays; for affinity for the G-quadruplex structure of EBNA1 (in words, FID data): conclusion from Table 1
Method: This assay is based on the displacement of a fluorescent indicator (Thiazole Orange, hereinafter TO) from a G4-RNA structure (RNA G-quadruplex of EBNA1) by a putative ligand such as the compounds of the invention (see FIG. 1). This displacement is quantified as % TO displacement. The percentage of TO displacement is calculated from the fluorescence intensity (F) in the presence of a putative ligand, using:
[formula] where F0 is fluorescence intensity of the probe (TO) bound to RNA without added ligand. The percentage of displacement is then plotted as a function of the concentration of added ligand. The RNA affinity of putative ligands is evaluated using the concentration of a ligand required to decrease the fluorescence of the probe by 50% (noted DC50), which is determined graphically from non-linear fitting of the displacement curve. […] 2. Materials and Reagents
Thiazole Orange (TO) and cacodylic acid were purchased from Aldrich and used without further purification. The oligoribonucleotide EBNA1 [5′-r(GGGGCAGGAGCAGGAGGA)-3′] (SEQ ID no 1) purified by reversed-phase HPLC was purchased from Eurogentec.
Stock solutions of the ligands (2 mM in DMSO (dimethylsulfoxyde)) were used for G4-FID assay, unless otherwise stated, and were stored at −20° C. Stock solutions of TO (2 mM in DMSO) were used for G4-FID assay. Fluorescent probe powders and solutions were stored and used, protected from light and used as aliquots to avoid freeze-thaw cycles. HT-G4-FID measurements were performed on a FLUOstar Omega microplate reader (BMG Labtech) with 96-well Non-Binding Surface black with black bottom polystyrene microplates (Corning ref 3650).
For HT-G4-FID assay, the oligonucleotide was dissolved in K^+−100-buffer (10 mM lithium cacodylate, pH 7.3, 100 mM KCl, 1 mM EDTA, 1% DMSO). Oligonucleotide concentrations were determined on the basis of their absorbance at 260 nm. Prior to use, the oligonucleotide was pre-treated by heating at 95° C. for 5 min followed by a slow cooling to 25° C.
Each G4-FID assay is performed in a 96-well microplates. […] The microplate is filled with (a) K^+−100 solution (qs for 200 μL) (b) 10 μL of a solution of pre-folded oligonucleotides (5 μM) and TO (10 μM-2 eq) and (c) an extemporaneously prepared 5 μM ligand solution in K^+−100 buffer (0 to 100 μL along the line of the microplate, i.e., from column […]: 0, 0.125, 0.25, 0.375, 0.5, 0.625, 0.75, 1.0, 1.25, 1.5, 2.0 and 2.5 μM) (see Largy et al., Anal Bioanal Chem 2011, 400, 34193427). After 5 min of orbital shaking at 500 rpm, fluorescence intensity is measured using the following experimental parameters: positioning delay: 0.5 s, 20 flashes per well, emission/excitation filters (nm): 485/520, gain adjusted at 80% of the fluorescence from the most fluorescent well (i.e., a well from column A).
Results are shown in Table 1 below (lower DC50 values indicate higher affinity of compounds to the G4-RNA structure of EBNA1).

| SMILES | result in the yeast assay [1] | ΔTm, ligand + 3 μM ds26 [2] [°C] | ΔTm, ligand + 10 μM ds26 [2] [°C] | ΔTm, ligand alone [2] [°C] | affinity for the G-quadruplex structure of EBNA1 (in words, FRET-melting data) [2] | DC50 [3] [µM] | affinity for the G-quadruplex structure of EBNA1 (in words, FID data) [3] |
| --- | --- | --- | --- | --- | --- | --- | --- |
| C[n+]1ccc(C=NNC(=O)c2cccc(C(=O)NN=Cc3cc[n+](C)cc3)n2)cc1.[I-].[I-] [Compound 1a, N′^2,N′^6-Bis[(1-methylpyridinium-4-yl)methylene]pyridine-2,6-dicarbohydrazide iodide] | positive results | – | – | – | – | – | – |
| O=C(NN=Cc1cc[n+](Cc2ccccc2)c2ccccc12)c1ccc2ccc3ccc(C(=O)NN=Cc4cc[n+](Cc5ccccc5)c5ccccc45)nc3c2n1.[Br-].[Br-] [Compound 11c, N′^2,N′^9-Bis[(1-benzylquinolinium-4-yl)methylene]-1,10-phenanthroline-2,9-dicarbohydrazide bromide] | – | 20.3 ± 0.4 | 17.0 ± 0.8 | 20.1 ± 0.3 | particularly high affinity | 0.34 ± 0.02 | particularly high affinity |
| O=C(NN=Cc1ccc2c(ccc[n+]2Cc2ccccc2)c1)c1ccc2ccc3ccc(C(=O)NN=Cc4ccc5c(ccc[n+]5Cc5ccccc5)c4)nc3c2n1.[Br-].[Br-] [Compound 12c, N′^2,N′^9-Bis[(1-benzylquinolinium-6-yl)methylene]-1,10-phenanthroline-2,9-dicarbohydrazide bromide] | – | 25.0 ± 0.7 | 22.7 ± 1.5 | 25.3 ± 1.3 | particularly high affinity | 0.65 ± 0.06 | – |
| CC[n+]1cccc2cc(C=NNC(=O)c3cccc(C(=O)NN=Cc4ccc5c(ccc[n+]5CC)c4)n3)ccc21.[I-].[I-] [Compound 3b, N′^2,N′^6-Bis[(1-ethylquinolinium-6-yl)methylene]pyridine-2,6-dicarbohydrazide iodide] | – | 7.6 ± 0.5 | 7.4 ± 0.3 | 5.9 ± 0.1 | – | 0.74 ± 0.03 | – |
| O=C(NN=Cc1ccc2c(ccc[n+]2Cc2ccccc2)c1)c1cccc(C(=O)NN=Cc2ccc3c(ccc[n+]3Cc3ccccc3)c2)n1.[Br-].[Br-] [Compound 3c, N′^2,N′^6-Bis[(1-benzylquinolinium-6-yl)methylene]pyridine-2,6-dicarbohydrazide bromide] | – | 12.2 ± 0.2 | 12.0 ± 0.2 | 10.4 ± 0.3 | – | 0.72 ± 0.03 | – |
| O=C(NN=Cc1cc[n+](Cc2ccccc2)c2ccccc12)c1cccc(C(=O)NN=Cc2cc[n+](Cc3ccccc3)c3ccccc23)n1.[Br-].[Br-] [Compound 2c, N′^2,N′^6-Bis[(1-benzylquinolinium-4-yl)methylene]pyridine-2,6-dicarbohydrazide bromide] | – | 11.4 ± 0.6 | 9.6 ± 0.2 | 10.1 ± 0.9 | – | 0.39 ± 0.02 | particularly high affinity |
| CC[n+]1cccc2cc(C=NNC(=O)c3ccc4ccc5ccc(C(=O)NN=Cc6ccc7c(ccc[n+]7CC)c6)nc5c4n3)ccc21.[I-].[I-] [Compound 12b, N′^2,N′^9-Bis[(1-ethylquinolinium-6-yl)methylene]-1,10-phenanthroline-2,9-dicarbohydrazide iodide] | – | 25.9 ± 0.4 | 25.1 ± 0.8 | 28.5 ± 1.1 | particularly high affinity | 0.59 ± 0.03 | – |
| CC[n+]1cccc2cc(C=NNC(=O)c3ccc4ccc(C(=O)NN=Cc5ccc6c(ccc[n+]6CC)c5)nc4n3)ccc21.[I-].[I-] [Compound 9b, N′^2,N′^7-Bis[(1-ethylquinolinium-6-yl)methylene]-1,8-naphthyridine-2,7-dicarbohydrazide iodide] | – | 10.3 ± 0.2 | 8.8 ± 0.2 | 11.8 ± 0.1 | – | 0.8 ± 0.01 | – |
| O=C(NN=Cc1ccc2c(ccc[n+]2Cc2ccccc2)c1)c1ccc2ccc(C(=O)NN=Cc3ccc4c(ccc[n+]4Cc4ccccc4)c3)nc2n1.[Br-].[Br-] [Compound 9c, N′^2,N′^7-Bis[(1-benzylquinolinium-6-yl)methylene]-1,8-naphthyridine-2,7-dicarbohydrazide bromide] | – | 12.3 ± 0.4 | 10.0 ± 1.7 | 13.1 ± 0.6 | – | 1.09 ± 0.1 | – |
